As a reminder, the Ki is the equilibrium dissociation constant of an inhibitor or competing ligand from its target.

This experiment deals with T1, human FAAH (Homo sapiens, UniProt O00519).
T1 construct: host or cells: COS-7 cells, transient transfection; 13,000 g membrane fraction solubilised in 1% Triton X-100
T1 sequence (O00519 1-579): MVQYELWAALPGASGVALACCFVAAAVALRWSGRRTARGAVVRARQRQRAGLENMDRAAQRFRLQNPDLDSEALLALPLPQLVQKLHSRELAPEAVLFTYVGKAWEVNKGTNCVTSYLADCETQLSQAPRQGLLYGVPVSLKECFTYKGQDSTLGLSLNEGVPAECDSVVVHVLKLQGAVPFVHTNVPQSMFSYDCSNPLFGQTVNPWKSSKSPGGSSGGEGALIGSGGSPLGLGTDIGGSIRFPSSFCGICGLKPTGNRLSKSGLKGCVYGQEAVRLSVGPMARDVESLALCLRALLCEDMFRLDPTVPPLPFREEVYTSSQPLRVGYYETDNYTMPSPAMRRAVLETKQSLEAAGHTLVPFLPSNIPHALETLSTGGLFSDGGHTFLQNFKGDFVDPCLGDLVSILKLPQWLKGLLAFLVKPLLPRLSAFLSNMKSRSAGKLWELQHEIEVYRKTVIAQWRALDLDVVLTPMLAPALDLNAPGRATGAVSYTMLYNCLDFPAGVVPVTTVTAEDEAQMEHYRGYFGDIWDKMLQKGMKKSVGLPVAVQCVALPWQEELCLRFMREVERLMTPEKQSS
The experiment can be described thus: Inhibition of human FAAH (fluorescence assay, AMC Arachidonoyl Amide substrate). In kind it is biochemical. The conditions noted are these: solubilized human FAAH from transfected COS-7 cells; 30 minutes preincubation; 20 μM AMC-Arachidonoyl substrate; 4 hours at room temperature. On the procedure:
Human FAAH Preparation: COS-7 cells were split the day before, 1:5 into 150 mm×25 mm cell culture dishes (Corning Inc., Cat. No. 430599). Transient transfection took place at 30-40% confluency according to FuGENE 6 Transfection Reagent (Roche, Cat. No. 11814 443 001).
Transfection Procedure: The FuGENE transfection 6 reagent (45 uL) was added to 1410 μL of media (DMEM, serum free without pen/strep) in a 15 mL conical tube and incubated at room temp for 5 minutes, followed by the addition of FAAH plasmid DNA (15 μg) (OriGene Cat. No. TC119221, Genbank Accession No. NM 001441.1, 0.67 ug/uL) and a further incubation of 15 minutes at room temperature. The resulting solution was added into one dish of 30-40% confluent COS-7 cells in a drop-wise manner. The COS-7 cell dish was subsequently incubated for 48 hours. The cells are then harvested.
Harvest procedure: Media was aspirated from the dishes and the cells rinsed with 10 mL PBS. The PBS was removed and 3 mL of PBS added to the dish. The dish was scraped to resuspend the cells, and the subsequent cell suspension collected into a 15 mL conical tube. The cells were pelleted by centrifugation at 1200 rpm for 5 minutes in a bench top centrifuge. PBS was removed and the cell pellet snap frozen in liquid nitrogen and stored at −80° C.
COS-7 Cells—FAAH Purification: • (1) Fractionation: Frozen cell pellets from transient transfections were thawed on ice and resuspended in 12.5 mM Hepes pH 8.0, 100 mM NaCl, 1 mM EDTA (10 mL/0.2 g cell pellet). The pellets were dounce homogenized and then sonicated to produce cell extract. The cell extract was subsequently centrifuged at 1000 g to remove cellular debris. The pellet was discarded and the supernatant centrifuged at 13,000 g for 20 minutes. The pellet contained membrane bound FAAH. The supernatant was discarded and the pellet resolubilized. • (2) Re-solubilization: The fraction of interest, (13,000 g, membrane fraction) was re-suspended in 2.3 mL re-suspension buffer (20 mM Hepes pH 7.8, 10% v/v Glycerol, 1 mM EDTA, 1% Triton X-100) and the sample incubated on ice for 1 hour and then centrifuged to remove any particulate matter. The supernatant containing solubilized human FAAH was aliquoted and snap frozen in liquid nitrogen and stored at −80° C. until use. • (3) Characterization: Protein Concentration determined by Bradford assay. • SDS gel and Western blot to confirm presence of FAAH • FAAH activity assay • Km determination—96-well assay • Linear dependence—96-well assay • Standard compound Ki determination—384-well assay
Human FAAH assay; Experimental Protocol: A 0.1 mg/mL Human FAAH solution was made up in FAAH reaction buffer, and 24 ul pipeted into a 384 well plate. To this was added 1 μL of a 3 fold serially diluted inhibitor from a DMSO stock solution. The FAAH solution and inhibitor were incubated for 30 minutes at room temperature. The FAAH reaction was initiated by the addition of 25 μL of 40 μM AMC Arachidonoyl Amide in FAAH reaction buffer, yielding a final reaction human FAAH preparation concentration of 0.05 mg/ml and AMC-Arachidonoyl substrate concentration of 20 μM, reaction volume 50 μL. The reaction was allowed to proceed for 4 hours at room temperature. The reaction was stopped by the addition of 25 μL 12 μM a-ketoheterocycle (Cayman Chemicals, catalogue # 10435). The microtiter plate was read in the envision plate reader.
The raw fluorescence was plotted on the y axis and the inhibitor concentration on the x axis to give a dose response inhibition curve. The data was fitted to a single site competitive inhibition equation, fixing the Km for the human enzyme to 12 μM and 9 μM respectively.
Regarding `BrC1=NO[C@@H](c2ccncc2)C1` [II-1a], the Ki is at least 1000 nM.
`BrC1=NO[C@H](c2ccncc2)C1` [II-1b] registered a Ki of at least 1000 nM.
In turn, `BrC1=NO[C@@H](c2cccnc2)C1` [II-2a] had a Ki of at least 1000 nM.
Under `BrC1=NO[C@H](c2cccnc2)C1` [II-2b] stands at least 1000 nM; under `BrC1=NO[C@@H](c2ccccn2)C1` [II-3a], at least 1000 nM.
The molecule `BrC1=NO[C@H](c2ccccn2)C1` [II-3b] showed a Ki of at least 1000 nM.
In the case of `BrC1=NO[C@H](c2cnn(-c3ccccc3)c2)C1` [II-4-b], the Ki fell in the range of 100 to 1000 nM.
The molecule `BrC1=NO[C@@H](c2cnn(-c3ccccc3)c2)C1` [II-4a] showed a Ki of 100 to 1000 nM.
Turning to `BrC1=NO[C@@H](c2csc(-c3ccccc3)n2)C1` [II-5a], the inhibitory constant (Ki) was at least 1000 nM.
In turn, `BrC1=NO[C@H](c2csc(-c3ccccc3)n2)C1` [II-5b] came in with a Ki of at least 1000 nM.
Next, `BrC1=NO[C@@H](c2cnc(-c3ccccc3)s2)C1` [II-6a]: at most 100 nM; `BrC1=NO[C@H](c2cnc(-c3ccccc3)s2)C1` [II-6b]: at most 100 nM; `BrC1=NO[C@@H](c2ccc(-c3ccccc3)s2)C1` [II-7a]: at most 100 nM.
For the molecule `BrC1=NO[C@H](c2ccc(-c3ccccc3)s2)C1` [II-7b], the Ki is at most 100 nM.
In turn, `BrC1=NO[C@@H](c2cc(-c3ccccc3)cs2)C1` [II-8a] came in with an inhibition constant Ki of at most 100 nM.
Under `BrC1=NO[C@H](c2cc(-c3ccccc3)cs2)C1` [II-8b] stands at most 100 nM; under `BrC1=NO[C@@H](c2ccc3ncccc3c2)C1` [II-9a], at most 100 nM; under `BrC1=NO[C@H](c2ccc3ncccc3c2)C1` [II-9b], at most 100 nM.
Take `BrC1=NO[C@@H](c2cnc3ccccc3c2)C1` [II-10a]: the Ki is at most 100 nM.
Next, `BrC1=NO[C@H](c2cnc3ccccc3c2)C1` [II-10b]: at most 100 nM.
Under `BrC1=NO[C@@H](c2ccc3nccnc3c2)C1` [II-11a] stands at most 100 nM; under `BrC1=NO[C@H](c2ccc3nccnc3c2)C1` [II-11b], at most 100 nM; under `CC(C)(C)OC(=O)Nc1nc2ccc([C@H]3CC(Br)=NO3)cc2s1` [II-13a], 100 to 1000 nM.
Under `CC(C)(C)OC(=O)Nc1nc2ccc([C@@H]3CC(Br)=NO3)cc2s1` [II-13b] stands 100 to 1000 nM.
As for `CC(C)(C)OC(=O)N1CCN(C[C@H]2CC(Br)=NO2)CC1` [II-14a], the Ki was at most 100 nM.
Under `CC(C)(C)OC(=O)N1CCN(C[C@@H]2CC(Br)=NO2)CC1` [II-14b] stands at most 100 nM; under `O=C(OCc1ccccc1)N1CCC([C@H]2CC(Br)=NO2)CC1` [II-15a], 100 to 1000 nM.
Under `O=C(OCc1ccccc1)N1CCC([C@@H]2CC(Br)=NO2)CC1` [II-15b] stands 100 to 1000 nM; under `CC(C)(C)OC(=O)N1CCC([C@H]2CC(Br)=NO2)CC1` [II-16a], at most 100 nM.
Next, `CC(C)(C)OC(=O)N1CCC([C@@H]2CC(Br)=NO2)CC1` [II-16b]: at most 100 nM; `Clc1ccc(-c2ncc([C@H]3CC(Br)=NO3)s2)cc1` [II-17a]: at most 100 nM; `Clc1ccc(-c2ncc([C@@H]3CC(Br)=NO3)s2)cc1` [II-17b]: at most 100 nM.
`C[C@]1(c2cnc(-c3ccccc3)s2)CC(Br)=NO1` [II-18a]: the Ki is at most 100 nM.
Molecule `C[C@@]1(c2cnc(-c3ccccc3)s2)CC(Br)=NO1` [II-18b] gave a Ki of at most 100 nM.
`C[C@H]1C(Br)=NO[C@H]1c1cnc(-c2ccccc2)s1` [II-19a] came in with a Ki of at most 100 nM.
With `C[C@@H]1C(Br)=NO[C@@H]1c1cnc(-c2ccccc2)s1` [II-19b], the Ki is at most 100 nM.
Under `C[C@@H]1C(Br)=NO[C@H]1c1cnc(-c2ccccc2)s1` [II-20a] stands at least 1000 nM; under `C[C@H]1C(Br)=NO[C@@H]1c1cnc(-c2ccccc2)s1` [II-20b], at least 1000 nM; under `c1ccc(-c2ncc([C@H]3CC(Oc4cccnc4)=NO3)s2)cc1` [II-21a], at most 100 nM.
Turning to `c1ccc(-c2ncc([C@@H]3CC(Oc4cccnc4)=NO3)s2)cc1` [II-21b], the inhibitory constant (Ki) is at most 100 nM.
Under `C[C@]1(c2cnc(-c3ccccc3)s2)CC(Oc2cncnc2)=NO1` [II-22a] stands at most 100 nM.
Next, `C[C@@]1(c2cnc(-c3ccccc3)s2)CC(Oc2cncnc2)=NO1` [II-22b]: at most 100 nM; `C[C@]1(c2cnc(-c3ccccc3)s2)CC(Oc2cccnc2)=NO1` [II-23a]: at most 100 nM; `C[C@@]1(c2cnc(-c3ccccc3)s2)CC(Oc2cccnc2)=NO1` [II-23b]: at most 100 nM.
Consider `Cc1nc(-c2ccccc2)sc1[C@@]1(C)CC(Br)=NO1` [II-24a], for which the Ki was in the range of 100 to 1000 nM.
Next, `Cc1nc(-c2ccccc2)sc1[C@]1(C)CC(Br)=NO1` [II-24b]: 100 to 1000 nM; `BrC1=NO[C@@H](c2ccc(-c3cccnc3)s2)C1` [II-25a]: at most 100 nM; `BrC1=NO[C@H](c2ccc(-c3cccnc3)s2)C1` [II-25b]: at most 100 nM.
For the molecule `c1cncc(-c2ccc([C@H]3CC(Oc4cncnc4)=NO3)s2)c1` [II-26a], the Ki was at most 100 nM.
Under `c1cncc(-c2ccc([C@@H]3CC(Oc4cncnc4)=NO3)s2)c1` [II-26b] stands at most 100 nM; under `O=C(O)c1ccc(OC2=NO[C@@H](c3ccc(-c4cccnc4)s3)C2)cn1` [II-27a], at most 100 nM; under `O=C(O)c1ccc(OC2=NO[C@H](c3ccc(-c4cccnc4)s3)C2)cn1` [II-27b], at most 100 nM.
For `CS(=O)(=O)c1ccc(OC2=NO[C@@H](c3cnc(-c4ccccc4)s3)C2)cn1` [II-28a], the Ki is at most 100 nM.
Turning to `CS(=O)(=O)c1ccc(OC2=NO[C@H](c3cnc(-c4ccccc4)s3)C2)cn1` [II-28b], the Ki was at most 100 nM.
Next, `C[C@]1(c2cnc(-c3ccccc3)s2)CC(Oc2ccc(S(C)(=O)=O)nc2)=NO1` [II-29a]: at most 100 nM.
`C[C@@]1(c2cnc(-c3ccccc3)s2)CC(Oc2ccc(S(C)(=O)=O)nc2)=NO1` [II-29b] showed a Ki of at most 100 nM.
`O[C@H](CNC1=NO[C@@H](c2cc(-c3ccccc3)cs2)C1)c1ccccc1` [II-30a] returned a Ki of at least 1000 nM.
`O[C@@H](CNC1=NO[C@@H](c2cc(-c3ccccc3)cs2)C1)c1ccccc1` [II-31a]: the Ki is at least 1000 nM.
`O[C@@H](CNC1=NO[C@H](c2cc(-c3ccccc3)cs2)C1)c1ccccc1` [II-31b] returned an inhibitory constant (Ki) of at least 1000 nM.

The values above are taken from US8927551B2, “Isoxazolines as inhibitors of fatty acid amide hydrolase” (Infinity Pharmaceuticals, Inc., priority 2009, dated 2015).
